Experimental data: patent publication US20060069132A1, “Azolecarboxamide herbicides” (priority 2004, published 2006)

Experiments:
cocklebur = assay: Test B pre-/postemergence herbicide test; format: in vivo, Xanthium strumarium; conditions: for Cocklebur plant response rating: postemergence, visual rating, scale 0 (no effect) to 100 (complete control)
Outline: (§1)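 Pre: seeds sown, then sprayed. Post: 1–4-leaf plants (2–18 cm) sprayed at the same time. Paddy: flooded, treated at 2-leaf stage. Formulation: non-phytotoxic solvent with surfactant. Greenhouse 13–15 days; visual 0–100 score relative to controls.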

wild oat = assay: Test B postemergence herbicide test; format: in vivo, Avena fatua; conditions: postemergence, visual rating, scale 0 (no effect) to 100 (complete control)
Outline: (§2)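 Read-out: visual comparison with controls, scored 0 to 100, where 100 means complete control and 0 no effect. Formulated chemicals were applied postemergence to plants 2–18 cm tall (1- to 4-leaf), or to flooded-paddy plants at the 2-leaf stage, then held 13 to 15 days under glass.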

large crabgrass [1] = assay: Test B pre-/postemergence herbicide test; format: in vivo, Digitaria sanguinalis; conditions: for Crabgrass, Large plant response rating: postemergence, visual rating, scale 0 (no effect) to 100 (complete control)
Outline: (§3)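 Flooded paddy rice and barnyardgrass were treated at the 2-leaf stage; upland plantings received compound either on sown seed or on 1- to 4-leaf seedlings. All were kept 13–15 days in a greenhouse and scored visually, 0–100, relative to untreated plants.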

corn = assay: Test B pre-/postemergence herbicide test; format: in vivo, Zea mays; conditions: for Corn plant response rating: postemergence, visual rating, scale 0 (no effect) to 100 (complete control)
Outline: as §3

large crabgrass [2] = assay: Test A pre-/postemergence herbicide test; format: in vivo, Digitaria sanguinalis
Outline: (§4)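 Pre: seeded sandy loam, directed soil spray, compound in non-phytotoxic solvent + surfactant. Post: 1–2-leaf plants (2–10 cm), sprayed to runoff. Greenhouse ~10 d; visual injury vs untreated, 0–100 scale.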

[3] = test system: small flower umbrella sedge; assay: Test B flooded paddy test; format: in vivo, Cyperus difformis; conditions: 1000 g ai/ha, visual rating, scale 0 to 100 (0 no effect, 100 complete control), 13 to 15 days
Outline: as §2

redroot pigweed = assay: Test A pre-/postemergence herbicide test; format: in vivo, Amaranthus retroflexus
Outline: as §4

giant foxtail [4] = assay: Test B pre-/postemergence herbicide test; format: in vivo, Setaria faberi; conditions: for Foxtail, Giant plant response rating: postemergence, visual rating, scale 0 (no effect) to 100 (complete control)
Outline: as §3

ducksalad = assay: Test B flooded paddy test; format: in vivo, Heteranthera limosa; conditions: 1000 g ai/ha, visual rating, scale 0 to 100 (0 no effect, 100 complete control), 13 to 15 days
Outline: as §2

blackgrass = assay: Test B postemergence herbicide test; format: in vivo, Alopecurus myosuroides; conditions: postemergence, visual rating, scale 0 (no effect) to 100 (complete control)
Outline: as §2

morningglory [5] = assay: Test B pre-/postemergence herbicide test; format: in vivo, Ipomoea coccinea; conditions: for Morningglory plant response rating: postemergence, visual rating, scale 0 (no effect) to 100 (complete control)
Outline: as §1

giant foxtail [6] = assay: Test A pre-/postemergence herbicide test; format: in vivo, Setaria faberi
Outline: as §4

barnyardgrass [7] = assay: Test B pre-/postemergence herbicide test; format: in vivo, Echinochloa crus-galli; conditions: for Barnyardgrass plant response rating: postemergence, visual rating, scale 0 (no effect) to 100 (complete control)
Outline: as §1

pigweed = assay: Test B pre-/postemergence herbicide test; format: in vivo, Amaranthus retroflexus; conditions: for Pigweed plant response rating: postemergence, visual rating, scale 0 (no effect) to 100 (complete control)
Outline: as §3

morningglory [8] = assay: Test A pre-/postemergence herbicide test; format: in vivo, Ipomoea spp.
Outline: as §4

Surinam grass = assay: Test B pre-/postemergence herbicide test; format: in vivo, Urochloa decumbens; conditions: for Surinam Grass plant response rating: postemergence, visual rating, scale 0 (no effect) to 100 (complete control)
Outline: as §3

velvetleaf [9] = assay: Test A pre-/postemergence herbicide test; format: in vivo, Abutilon theophrasti
Outline: as §4

barnyardgrass [10] = assay: Test A pre-/postemergence herbicide test; format: in vivo, Echinochloa crus-galli
Outline: as §4

lambsquarters = assay: Test B pre-/postemergence herbicide test; format: in vivo, Chenopodium album; conditions: for Lambsquarters plant response rating: postemergence, visual rating, scale 0 (no effect) to 100 (complete control)
Outline: as §3

wheat = assay: Test B postemergence herbicide test; format: in vivo, Triticum aestivum; parameters: key to Wheat plant response rating: 0 = no effect, 100 = complete control; conditions: postemergence, visual rating, scale 0 (no effect) to 100 (complete control)
Outline: as §2

rice [11] = assay: Test B flooded paddy test; format: in vivo, Oryza sativa; conditions: 1000 g ai/ha, visual rating, scale 0 to 100 (0 no effect, 100 complete control), 13 to 15 days
Outline: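 After treating 2-leaf paddy plants or 2–18 cm postemergence plants (1 to 4 leaves) with formulated chemical, researchers kept them in a greenhouse for 13–15 days. Effects were judged visually versus controls: 0 indicates none, 100 total control.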

barnyardgrass [12] = assay: Test B flooded paddy test; format: in vivo, Echinochloa crus-galli; conditions: 1000 g ai/ha, visual rating, scale 0 to 100 (0 no effect, 100 complete control), 13 to 15 days
Outline: as §2

velvetleaf [13] = assay: Test B pre-/postemergence herbicide test; format: in vivo, Abutilon theophrasti; conditions: for Velvetleaf plant response rating: postemergence, visual rating, scale 0 (no effect) to 100 (complete control)
Outline: as §3

rice [14] = assay: Test B pre-/postemergence herbicide test; format: in vivo, Oryza sativa; conditions: preemergence
Outline: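 Evaluation is visual, comparing treated with control plants on a scale where 0 means no effect and 100 means full control. Treatments were preemergence, or postemergence on seedlings 2–18 cm tall, and held 13–15 days in the greenhouse.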

[15] = 125 g ai/ha, 0 = no effect, 100 = complete control, preemergence
[16] = 500 g ai/ha, visual rating 0-100, 0 no effect, 100 complete control, preemergence
[17] = Postemergence, 500 g ai/ha, 0 to 100 scale, 0 no effect, 100 complete control
[18] = Postemergence, 2000 g ai/ha, 0 to 100 scale, 0 no effect, 100 complete control
[19] = Preemergence, 2000 g ai/ha, visual rating, 0 to 100 scale (0 no effect, 100 complete control)
[20] = preemergence, 500 g ai/ha, visual injury, 0 to 100 scale (0 no effect, 100 complete control)

How did the “Cocklebur plant response rating (0 to 100 scale)” value (cocklebur; [15]) turn out when Cc1nc(C(C)(C)C)sc1C(=O)Nc1cccc(C(=O)NCC(F)(F)F)c1 [Compound 201] was run?
The value was 0.

What about the “Plant response rating, Cocklebur” value (cocklebur; [16]) of the same compound?
The value was 0.

What about the “Cocklebur plant response rating” value (cocklebur; 125 g ai/ha) of the same compound?
The value was 10.

What about the “Cocklebur plant response rating” value (cocklebur; 500 g ai/ha) of the same compound?
Its value is 10.

What about the “Oat, Wild plant response rating” value (wild oat; 125 g ai/ha) of the same compound?
The value was 10.

What about the “Oat, Wild plant response rating” value (wild oat; 500 g ai/ha) of the same compound?
Its value is 10.

What about the “Crabgrass, Large plant response rating (0 to 100 scale)” value (large crabgrass [1]; [15]) of the same compound?
The value was 0.

And the “Plant response rating, Crabgrass, Large” value (large crabgrass [1]; [16])?
Its value is 60.

And the “Crabgrass, Large plant response rating” value (large crabgrass [1]; 125 g ai/ha)?
Its value is 0.

And the “Crabgrass, Large plant response rating” value (large crabgrass [1]; 500 g ai/ha)?
Its value is 10.

And the “Corn plant response rating (0 to 100 scale)” value (corn; [15])?
Its value is 0.

What about the “Plant response rating, Corn” value (corn; [16]) of the same compound?
Its value is 0.

What about the “Corn plant response rating” value (corn; 125 g ai/ha) of the same compound?
Its value is 10.

What about the “Corn plant response rating” value (corn; 500 g ai/ha) of the same compound?
The value was 20.

What about the “Crabgrass, Large plant response rating” value (large crabgrass [2]; [17]) of the same compound?
Its value is 10.

And the “Plant response rating, Crabgrass, Large” value (large crabgrass [2]; [18])?
Its value is 20.

And the “Crabgrass, Large plant response rating” value (large crabgrass [2]; [19])?
The value was 70.

What about the “Crabgrass, Large plant response rating” value (large crabgrass [2]; [20]) of the same compound?
The value was 35.

What about the “Sedge, Umbrella plant response rating” value [3] of the same compound?
Its value is 0.

And the “Pigweed plant response rating” value (redroot pigweed; [17])?
The value was 40.

And the “Plant response rating, Pigweed” value (redroot pigweed; [18])?
The value was 55.

And the “Pigweed plant response rating” value (redroot pigweed; [19])?
Its value is 95.

And the “Pigweed plant response rating” value (redroot pigweed; [20])?
The value was 40.

What about the “Foxtail, Giant plant response rating (0 to 100 scale)” value (giant foxtail [4]; [15]) of the same compound?
The value was 0.

And the “Plant response rating, Foxtail, Giant” value (giant foxtail [4]; [16])?
Its value is 0.

And the “Foxtail, Giant plant response rating” value (giant foxtail [4]; 125 g ai/ha)?
The value was 0.

And the “Foxtail, Giant plant response rating” value (giant foxtail [4]; 500 g ai/ha)?
Its value is 0.

What about the “Ducksalad plant response rating” value (ducksalad) of the same compound?
The value was 0.

What about the “Blackgrass plant response rating” value (blackgrass; 125 g ai/ha) of the same compound?
Its value is 0.

And the “Blackgrass plant response rating” value (blackgrass; 500 g ai/ha)?
Its value is 0.

And the “Morningglory plant response rating (0 to 100 scale)” value (morningglory [5]; [15])?
The value was 0.

What about the “Plant response rating, Morningglory” value (morningglory [5]; [16]) of the same compound?
The value was 10.

What about the “Morningglory plant response rating” value (morningglory [5]; 125 g ai/ha) of the same compound?
Its value is 0.

And the “Morningglory plant response rating” value (morningglory [5]; 500 g ai/ha)?
The value was 30.

And the “Foxtail, Giant plant response rating” value (giant foxtail [6]; [17])?
The value was 0.

What about the “Plant response rating, Foxtail, Giant” value (giant foxtail [6]; [18]) of the same compound?
Its value is 10.

What about the “Foxtail, Giant plant response rating” value (giant foxtail [6]; [19]) of the same compound?
Its value is 15.

And the “Foxtail, Giant plant response rating” value (giant foxtail [6]; [20])?
Its value is 0.

And the “Barnyardgrass plant response rating (0 to 100 scale)” value (barnyardgrass [7]; [15])?
The value was 0.

What about the “Plant response rating, Barnyardgrass” value (barnyardgrass [7]; [16]) of the same compound?
The value was 10.

And the “Barnyardgrass plant response rating” value (barnyardgrass [7]; 125 g ai/ha)?
The value was 0.

And the “Barnyardgrass plant response rating” value (barnyardgrass [7]; 500 g ai/ha)?
The value was 0.

And the “Pigweed plant response rating (0 to 100 scale)” value (pigweed; [15])?
Its value is 0.

And the “Plant response rating, Pigweed” value (pigweed; [16])?
Its value is 20.

What about the “Pigweed plant response rating” value (pigweed; 125 g ai/ha) of the same compound?
Its value is 10.

And the “Pigweed plant response rating” value (pigweed; 500 g ai/ha)?
The value was 40.

What about the “Morningglory plant response rating” value (morningglory [8]; [17]) of the same compound?
Its value is 25.

And the “Plant response rating, Morningglory” value (morningglory [8]; [18])?
Its value is 30.

And the “Morningglory plant response rating” value (morningglory [8]; [19])?
The value was 5.

And the “Morningglory plant response rating” value (morningglory [8]; [20])?
The value was 0.

What about the “Surinam Grass plant response rating (0 to 100 scale)” value (Surinam grass; [15]) of the same compound?
Its value is 0.

What about the “Plant response rating, Surinam Grass” value (Surinam grass; [16]) of the same compound?
Its value is 0.

And the “Surinam Grass plant response rating” value (Surinam grass; 125 g ai/ha)?
Its value is 0.

What about the “Surinam Grass plant response rating” value (Surinam grass; 500 g ai/ha) of the same compound?
Its value is 10.

What about the “Velvetleaf plant response rating” value (velvetleaf [9]; [17]) of the same compound?
The value was 10.

What about the “Plant response rating, Velvetleaf” value (velvetleaf [9]; [18]) of the same compound?
Its value is 10.

And the “Velvetleaf plant response rating” value (velvetleaf [9]; [19])?
The value was 35.

And the “Velvetleaf plant response rating” value (velvetleaf [9]; [20])?
Its value is 0.

What about the “Barnyardgrass plant response rating” value (barnyardgrass [10]; [17]) of the same compound?
Its value is 10.

What about the “Plant response rating, Barnyardgrass” value (barnyardgrass [10]; [18]) of the same compound?
The value was 20.

And the “Barnyardgrass plant response rating” value (barnyardgrass [10]; [19])?
Its value is 50.

What about the “Barnyardgrass plant response rating” value (barnyardgrass [10]; [20]) of the same compound?
The value was 0.

And the “Lambsquarters plant response rating (0 to 100 scale)” value (lambsquarters; [15])?
Its value is 0.

And the “Plant response rating, Lambsquarters” value (lambsquarters; [16])?
The value was 30.

What about the “Lambsquarters plant response rating” value (lambsquarters; 125 g ai/ha) of the same compound?
Its value is 40.

And the “Lambsquarters plant response rating” value (lambsquarters; 500 g ai/ha)?
Its value is 40.

What about the “Wheat plant response rating” value (wheat; 125 g ai/ha) of the same compound?
Its value is 0.

And the “Wheat plant response rating” value (wheat; 500 g ai/ha)?
The value was 0.

What about the “Rice plant response rating” value (rice [11]) of the same compound?
Its value is 0.

And the “Barnyardgrass plant response rating” value (barnyardgrass [12])?
Its value is 0.

And the “Velvetleaf plant response rating (0 to 100 scale)” value (velvetleaf [13]; [15])?
The value was 0.

And the “Plant response rating, Velvetleaf” value (velvetleaf [13]; [16])?
The value was 10.

And the “Velvetleaf plant response rating” value (velvetleaf [13]; 125 g ai/ha)?
The value was 0.

And the “Velvetleaf plant response rating” value (velvetleaf [13]; 500 g ai/ha)?
The value was 0.

And the “Rice plant response rating (0 to 100 scale)” value (rice [14]; 125 g ai/ha, 0 = no effect, 100 = complete control)?
Its value is 0.

And the “Plant response rating, Rice” value (rice [14]; 500 g ai/ha, visual rating 0-100, 0 no effect, 100 complete control)?
Its value is 0.
